Measured values from ChEMBL document CHEMBL1201862, “PubChem BioAssay data set” (2004).
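Growth conditions: 96-well plates. Treatment: test compound, 48 hours, 5 concentrations. Analysis: linear interpolation between bracketing concentrations; unreached endpoints set to highest concentration. GI50 marks 50% less growth.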 The source made the active and inactive calls. Rule as the data show it: active = GI50 up to about 1.1 µM and inactive = higher.

Tests used:
Experiment in all cases: NCI anticancer screen, dose series, 48 h
Malme-3M = tested on: Malme-3M
MDA-MB-435 = tested on: MDA-MB-435
NCI/ADR-RES = tested on: NCI/ADR-RES
T47D = tested on: T47D
SF-539 = tested on: SF-539
A498 = tested on: A498
SK-MEL-2 = tested on: SK-MEL-2
HOP-62 = tested on: HOP-62
NCI-H522 = tested on: NCI-H522
SW-620 = tested on: SW-620
UO-31 = tested on: UO-31
COLO 205 = tested on: COLO 205
UACC-257 = tested on: UACC-257
KM12 = tested on: KM12
NCI-H23 = tested on: NCI-H23
U-251 = tested on: U-251
SK-OV-3 = tested on: SK-OV-3
RPMI-8226 = tested on: RPMI-8226
DLD-1 = tested on: DLD-1

For `CC[P+](c1ccccc1)(N(C)C)N(C)C`, the GI50 (Malme-3M) was > 100 µM (inactive), the GI50 (MDA-MB-435) was > 100 µM (inactive) and the GI50 (NCI/ADR-RES) was > 100 µM (inactive). The GI50 (T47D) was > 100 µM (inactive), the GI50 (SF-539) was > 100 µM (inactive) and the GI50 (A498) was > 100 µM (inactive). The GI50 (SK-MEL-2) was > 100 µM (inactive), the GI50 (HOP-62) was > 100 µM (inactive) and the GI50 (NCI-H522) was 89.5 µM (inactive). The GI50 (SW-620) was > 100 µM (inactive), the GI50 (UO-31) was > 100 µM (inactive) and the GI50 (COLO 205) was > 100 µM (inactive). The GI50 (UACC-257) was > 100 µM (inactive), the GI50 (KM12) was > 100 µM (inactive) and the GI50 (NCI-H23) was > 100 µM (inactive). For the same compound, the GI50 (U-251) was 53.8 µM (inactive), the GI50 (SK-OV-3) was > 100 µM (inactive) and the GI50 (RPMI-8226) was 71.9 µM (inactive).

With `Nc1c(-c2ccc(Cl)c(Cl)c2)c2ccc([N+](=O)[O-])cc2c(=O)n1-c1nc2ccccc2s1` the GI50 (Malme-3M) was 0.403 µM (active), the GI50 (MDA-MB-435) was 0.582 µM (active) and the GI50 (NCI/ADR-RES) was 0.577 µM (active). For the same compound, the GI50 (T47D) was 0.386 µM (active), the GI50 (SF-539) was 2.65 µM (inactive) and the GI50 (A498) was 0.566 µM (active). The GI50 (SK-MEL-2) was 0.369 µM (active), the GI50 (HOP-62) was 1.06 µM (active) and the GI50 (NCI-H522) was 0.193 µM (active). The GI50 (SW-620) was 0.574 µM (active), the GI50 (UO-31) was 0.445 µM (active) and the GI50 (COLO 205) was 1.5 µM (inactive). The GI50 (UACC-257) was 0.471 µM (active), the GI50 (KM12) was 0.64 µM (active) and the GI50 (NCI-H23) was 0.266 µM (active). For the same compound, the GI50 (U-251) was 0.425 µM (active), the GI50 (SK-OV-3) was 0.689 µM (active) and the GI50 (RPMI-8226) was 0.391 µM (active).

`C=C(C=O)c1c2c(nc3ccccc13)C(=O)c1ccccc1C2=O` was tested, and the GI50 (Malme-3M) was 1.42 µM (inactive), the GI50 (MDA-MB-435) was 0.273 µM (active) and the GI50 (NCI/ADR-RES) was 0.265 µM (active). For the same compound, the GI50 (T47D) was 0.646 µM (active), the GI50 (SF-539) was 0.673 µM (active) and the GI50 (A498) was 1.46 µM (inactive). For the same compound, the GI50 (SK-MEL-2) was 1.37 µM (inactive), the GI50 (HOP-62) was 1.15 µM (inactive) and the GI50 (NCI-H522) was 0.366 µM (active). For the same compound, the GI50 (SW-620) was 0.518 µM (active), the GI50 (UO-31) was 1.11 µM (active) and the GI50 (COLO 205) was 1.1 µM (active). The GI50 (UACC-257) was 1.49 µM (inactive), the GI50 (KM12) was 1.22 µM (inactive) and the GI50 (NCI-H23) was 0.481 µM (active). For the same compound, the GI50 (U-251) was 0.482 µM (active), the GI50 (SK-OV-3) was 2.9 µM (inactive) and the GI50 (RPMI-8226) was 0.296 µM (active).

For `O=C(N/N=C/c1c(-c2ccccc2)no[n+]1[O-])N1CCOCC1`, the GI50 (Malme-3M) was > 100 µM (inactive), the GI50 (MDA-MB-435) was > 100 µM (inactive) and the GI50 (NCI/ADR-RES) was > 100 µM (inactive). The GI50 (T47D) was > 100 µM (inactive), the GI50 (SF-539) was > 100 µM (inactive) and the GI50 (A498) was > 100 µM (inactive). For the same compound, the GI50 (SK-MEL-2) was > 100 µM (inactive), the GI50 (HOP-62) was > 100 µM (inactive) and the GI50 (NCI-H522) was > 100 µM (inactive). For the same compound, the GI50 (SW-620) was > 100 µM (inactive), the GI50 (UO-31) was > 100 µM (inactive) and the GI50 (COLO 205) was > 100 µM (inactive). The GI50 (UACC-257) was > 100 µM (inactive), the GI50 (KM12) was > 100 µM (inactive) and the GI50 (NCI-H23) was > 100 µM (inactive). For the same compound, the GI50 (U-251) was > 100 µM (inactive), the GI50 (SK-OV-3) was > 100 µM (inactive) and the GI50 (RPMI-8226) was > 100 µM (inactive).

`CCCCC/N=C/c1c(O)c(O)c(C(C)C)c2cc(C)c(-c3c(C)cc4c(C(C)C)c(O)c(O)c(/C=N/CCCCC)c4c3O)c(O)c12` was tested, and the GI50 (Malme-3M) was 12.7 µM (inactive), the GI50 (MDA-MB-435) was 6.3 µM (inactive) and the GI50 (NCI/ADR-RES) was 27.1 µM (inactive). The GI50 (T47D) was 3.98 µM (inactive), the GI50 (SF-539) was 6.08 µM (inactive) and the GI50 (A498) was 27.3 µM (inactive). For the same compound, the GI50 (SK-MEL-2) was 14 µM (inactive), the GI50 (HOP-62) was 15.3 µM (inactive) and the GI50 (NCI-H522) was 5.05 µM (inactive). For the same compound, the GI50 (SW-620) was 6.97 µM (inactive), the GI50 (UO-31) was 7.13 µM (inactive) and the GI50 (COLO 205) was 2.75 µM (inactive). The GI50 (UACC-257) was 15.6 µM (inactive), the GI50 (KM12) was 4.7 µM (inactive) and the GI50 (NCI-H23) was 12 µM (inactive). The GI50 (U-251) was 3.06 µM (inactive), the GI50 (SK-OV-3) was 7.06 µM (inactive) and the GI50 (RPMI-8226) was 8.26 µM (inactive).

In the case of `Cc1c(C)c(C)c(-n2c(=O)n(C)c(=O)n2-c2cc(C(C)(C)C)cc(C(C)(C)C)c2O)c(C)c1C`, the GI50 (Malme-3M) is reported as 11.9 µM (inactive), the GI50 (MDA-MB-435) is reported as 11.9 µM (inactive) and the GI50 (NCI/ADR-RES) is reported as 8.38 µM (inactive). For the same compound, the GI50 (T47D) was 4.89 µM (inactive), the GI50 (SF-539) was 10.5 µM (inactive) and the GI50 (A498) was 13.1 µM (inactive). The GI50 (SK-MEL-2) was 6.47 µM (inactive), the GI50 (HOP-62) was 14.4 µM (inactive) and the GI50 (NCI-H522) was 4.54 µM (inactive). The GI50 (SW-620) was 13.6 µM (inactive), the GI50 (UO-31) was 3.08 µM (inactive) and the GI50 (COLO 205) was 7.19 µM (inactive). The GI50 (UACC-257) was 9.66 µM (inactive), the GI50 (KM12) was 11.8 µM (inactive) and the GI50 (NCI-H23) was 7.91 µM (inactive). The GI50 (U-251) was 6.95 µM (inactive), the GI50 (SK-OV-3) was 12.4 µM (inactive) and the GI50 (RPMI-8226) was 4.63 µM (inactive).

`COCCOc1cc(C)cc(/C=C(C)/C=C/C2=C(C)CCCC2(C)C)n1` was tested, and the GI50 (Malme-3M) was 38.3 µM (inactive), the GI50 (SF-539) was > 100 µM (inactive) and the GI50 (A498) was > 100 µM (inactive). The GI50 (SK-MEL-2) was 49 µM (inactive), the GI50 (HOP-62) was > 100 µM (inactive) and the GI50 (NCI-H522) was 28.9 µM (inactive). The GI50 (SW-620) was 59.7 µM (inactive), the GI50 (DLD-1) was > 100 µM (inactive) and the GI50 (UO-31) was > 100 µM (inactive). The GI50 (COLO 205) was 54 µM (inactive), the GI50 (UACC-257) was 33.2 µM (inactive) and the GI50 (KM12) was 70.6 µM (inactive). The GI50 (NCI-H23) was 58.9 µM (inactive), the GI50 (U-251) was 62.4 µM (inactive) and the GI50 (SK-OV-3) was > 100 µM (inactive). For the same compound, the GI50 (RPMI-8226) was 14.8 µM (inactive).

In the case of `CC(C)(Br)C(Br)CC/C(=C/CBr)CBr.CC(C)(Br)C(Br)CC/C(=C\CBr)CBr` (stereo not drawn), the GI50 (Malme-3M) is reported as 3.85 µM (inactive), the GI50 (MDA-MB-435) is reported as 3.69 µM (inactive) and the GI50 (NCI/ADR-RES) is reported as 3.11 µM (inactive). For the same compound, the GI50 (T47D) was 2.76 µM (inactive), the GI50 (SF-539) was 4.66 µM (inactive) and the GI50 (A498) was 20.9 µM (inactive). For the same compound, the GI50 (SK-MEL-2) was 3.19 µM (inactive), the GI50 (HOP-62) was 2.89 µM (inactive) and the GI50 (NCI-H522) was 1.66 µM (inactive). The GI50 (SW-620) was 2.71 µM (inactive), the GI50 (DLD-1) was 3.39 µM (inactive) and the GI50 (UO-31) was 14.3 µM (inactive). The GI50 (COLO 205) was 3.27 µM (inactive), the GI50 (UACC-257) was 6 µM (inactive) and the GI50 (KM12) was 4.16 µM (inactive). The GI50 (NCI-H23) was 3.41 µM (inactive), the GI50 (U-251) was 3.05 µM (inactive) and the GI50 (SK-OV-3) was 21.4 µM (inactive). The GI50 (RPMI-8226) was 1.47 µM (inactive).
